Patent US20220183287A1, “METHODS FOR KILLING PESTS” (The United States of America, as represented by the …, priority 2020, published 2022)
Read-outs that look alike come from different tables or passages of the source. Marks after values point to notes of the source that are not given here.

Assays:
Heterodera glycines eggs = test: Microwell assay: eggs immersed in compounds, hatch and activity of hatched J2; assay type: in vivo; details: for % Active Day 2 / % Active Day 5 / % Active Day 7: J2 hatched from immersed eggs; for inactive J2 that hatched from the eggs: by Day 7; for Hatch Day 2 / Hatch Day 5 / Hatch Day 7: hatched J2 per well, about 35 eggs per well; for pest or weed control at 0.1 %: Heterodera glycines, 168 h, read-out: egg hatch suppression compared with the Tween control
Experimental: All chemicals were used without further purification.
These are reported as 0.1% herein.
The nematodes were then incubated at 26° C. […] Two trials were conducted for each assay.
The assumptions of the model were checked.

[1] = tested on: H. glycines second-stage juveniles; test: Microwell assay: previously hatched J2 immersed in compounds, activity and viability; details: for viability reduction compared with the Tween control: following the water rinse (Day 3); for inactive J2: Day 1 and Day 2; for reduction in % viable J2 compared with the Tween control: Day 3 following water rinse
[2] = tested on: M. incognita second-stage juveniles; test: as above; details: for mortality at 0.1 %: read-out: nonviable (killed) J2
[3] = 0.1%, previously hatched J2 in aqueous solution
[4] = Heterodera glycines, 72 h, read-out: % Viable Day 3 rinsed
[5] = Meloidogyne incognita, 72 h, read-out: % Viable Day 3 rinsed

SMILES	% Active Day 2 (Heterodera glycines eggs; 0.1%)	% Active Day 5 (Heterodera glycines eggs; 0.1%)	% Active Day 7 (Heterodera glycines eggs; 0.1%)	inactive J2 that hatched from the eggs (Heterodera glycines eggs; 0.1%)	Hatch Day 2 (Heterodera glycines eggs; 0.1%)	Hatch Day 5 (Heterodera glycines eggs; 0.1%)	Hatch Day 7 (Heterodera glycines eggs; 0.1%)	% Active Day 1 [1, 3]	% Active Day 2 [1, 3]	viability at 0.1 % [1, 4] [%]	% Active Day 1 [2, 3]	% Active Day 2 [2, 3]	viability at 0.1 % [2, 5] [%]	mortality at 0.1 % ([2]; Meloidogyne incognita, 72 h) [%]	pest or weed control at 0.1 % (Heterodera glycines eggs; 0.1%, Day 7) [%]	inactive J2 ([1]; 0.1%) [%]	reduction in % viable J2 compared with the Tween control ([1]; 0.1%) [%]	further results
CCOC(=O)c1ccccc1 [EB, Ethyl benzoate]	0 ^e %	0 ^f %	0 ^d %	all J2 that hatched from the eggs were inactive	6.7 ^bcd	6.8 ^bcd	6.6 ^bcd	2.7 ^e %	1.8 ^g %	4.4	0 ^f %	0 ^d %	0	100	–	–	–	% Active Day 1 ([1]; 0.025% final concentration): 73.9 ^a %; viability at 0.025 % [1, 4]: 52.8%; % Active Day 2 ([2]; 0.025% final concentration): 42.9 ^bc %; viability at 0.025 % [2, 5]: 80.2%
COC(=O)c1cccc(C)c1 [M3MB, Methyl 3-methylbenzoate]	0 ^e %	0 ^f %	0 ^d %	all J2 that hatched from the eggs were inactive	5.2 ^cd	5.4 ^cd	5.1 ^cd	10.1 ^d %	7.6 ^g %	8.5	0 ^f %	0 ^d %	0	100	64 to 80	–	–	% Active Day 1 ([1]; 0.015% final concentration): 71.9 ^a %; viability at 0.015 % [1, 4]: 58.7%; % Active Day 2 ([2]; 0.015% final concentration): 66.8 ^ab %; viability at 0.015 % [2, 5]: 63.7%
COC(=O)c1ccccc1 [MB, Methyl benzoate]	0 ^e %	0 ^f %	0 ^d %	all J2 that hatched from the eggs were inactive	5.4 ^cd	5.6 ^cd	5.5 ^cd	0 ^e %	0 ^h %	0	0 ^f %	0 ^d %	0	100	–	100	100	pest or weed control at 0.1 % (Heterodera glycines eggs): 64 to 80%; % Active Day 1 ([1]; 0.0095% final concentration): 49.7 ^bc %; % Active Day 2 ([1]; 0.0095% final concentration): 27.9 ^bc %; viability reduction compared with the Tween control ([1]; 0.0095%): 32%; viability at 0.0095 % [1, 4]: 43.8%; % Active Day 2 ([2]; 0.0095% final concentration): 22.4 ^d %; viability at 0.0095 % [2, 5]: 75.6%
C=COC(=O)c1ccccc1 [VB, Vinyl benzoate]	0 ^e %	0 ^f %	1 ^d %	all J2 that hatched from the eggs were inactive	3.5 ^d	3.5 ^d	3.4 ^d	0 ^e %	0 ^h %	0	0 ^f %	0 ^d %	1	100	80	100	100	hatch suppression compared to the Tween control (Heterodera glycines eggs; 0.1%, Day 2): 76%; % Active Day 1 ([1]; 0.008% final concentration): 42.8 ^bc %; % Active Day 2 ([1]; 0.008% final concentration): 34.7 ^b %; viability reduction compared with the Tween control ([1]; 0.008%): 30%; viability at 0.008 % [1, 4]: 45%; % Active Day 2 ([2]; 0.008% final concentration, Trial 2 only): 22.4 ^cd %; viability at 0.0008 % [2, 5]: 89.6%; viability at 0.008 % [2, 5]: 43.1%; % Viable Day 3 rinsed ([2]; in vivo): did not result in a significant reduction
